Source: patent US20150253323A1, “METHODS AND KITS FOR HIGH THROUGHPUT SCREENING FOR COMPOUNDS TARGETING DNA-BINDING AND RNA-BINDING PROTEINS” (The Florida International University Board of Trustees, priority 2014, published 2015)
“Also recorded” adds a separate entry of the source. Where a name gives a salt, the structure may show the parent alone. Read-outs that look alike come from different tables or passages of the source.

What was measured:
HMGA2 = assay: In-cell western analysis of HMGA2 expression in 3T3-L1 cells; type: cell-based, mouse; settings: normalized to TO-PRO-3, FIGS. 17F and G
Procedure: Specific protein levels were analyzed using in-cell western technology (Egorina, E. M., et al (2006)). During differentiation and drug administration, 3T3-L1 cells were fixed in 4% paraformaldehyde in PBS for 25 min at room temperature. Pre-adipocytes were quenched by washing the cells in 100 mM glycine for 5 min at room temperature. The cells were permeabilized by incubating the cells in 0.2% Triton X-100 in PBS for 30 min at room temperature. The cells were then blocked using LICOR Odyssey Blocking Buffer (LI-COR Biosciences, 927-40100) for 1 h at room temperature. Cells were then incubated with a primary antibody for HMGA2 (Cell Signaling Technologies #5269) at a 1:500 dilution in LI-COR Odyssey Blocking Buffer supplemented with 0.1% Tween-20 for 2.5 h at room temperature. The cells were washed in 0.1% Tween in PBS. Secondary antibodies (IRDye 800CW anti-rabbit, LI-COR Biosciences, 926-32211) were incubated at a dilution of 1:1000 in LI-COR Blocking Buffer supplemented with 0.1% Tween-20 for 1 h. Concurrent to the addition of secondary antibody TO-PRO-3 (Invitrogen) was added at a 1:1000 dilution as a normalization control for cell number and incubated for 1 h. The cells were washed again in 0.1% Tween-20 in PBS. Plates were then scanned on the LICOR Biosciences Odyssey CLx Infrared Imaging System and quantified using the LI-COR in-cell western analysis in Image Studio.

3T3-L1 cells = assay: Oil Red O staining of differentiated 3T3-L1 cells (adipogenesis); type: cell-based, mouse
Procedure: Mouse pre-adipocytes (3T3-L1 cells) were a gracious gift from Dr Jun Liu at Mayo Clinic. 3T3-L1 cells were maintained in DMEM supplemented with 10% FBS, 100 U/ml penicillin, 100 μg/ml streptomycin and 5 μg/ml plasmocin. The cells were grown under normal culture conditions of 5% CO2 and humidity. Cells were maintained for a minimum of three passages in linear growth prior to differentiation. To differentiate the 3T3-L1 pre-adipocytes into adipocytes, we used the protocol previously described by Zebisch et al. (Zebisch, K., et al. (2012)). Briefly, 3T3-L1 pre-adipocytes were sub-cultured in DMEM supplemented with 5% newborn calf serum, 100 U/ml penicillin, 100 μg/ml streptomycin and 5 μg/ml plasmocin (Basal Media 1—BM1). The cells were then plated at 6×10^5 cells per dish in 35-mm dishes, 3×10^5 cells per well in a 12-well plate, 1.5×10^5 cells in a 24-well plate or 3.0×10^4 cells per well in a 96-well plate. The cells were grown to confluency with BM1 replacement every other day. Following 48 h of confluency, 3T3-L1 cells were treated with Differentiation medium 1 (DM1), which is BM1 supplemented with […] iso-butyl-methylxanthine, 0.25 μM dexamethasone, 1 μg/ml insulin and 2 μg/ml rosiglitazone. After 48 h, the medium was replaced with differentiation medium 2 (DM2); this is BM1 supplemented with 1 μg/ml insulin. On the seventh day, the cells were placed in DMEM with FBS. The cells were cultured to the date indicated in the experiments below with media changes every other day. The presence of adipogenesis was confirmed by microscopic detection of adipose bodies in the cells. For our experiments, only cultures with >80% differentiation were used.
Following differentiation and drug treatment, Oil Red O staining was used to qualitatively and quantitatively assess the level of neutral lipids in the differentiated cells. For qualitative assessment by phase microscopy, cells were washed twice in PBS and then fixed with 10% formalin for 30 min at room temperature. Oil Red O was reconstituted at 300 mg per 100 ml of isopropanol. The Oil Red O solution was prepared for staining by adding 20 ml of deionized water to 30 ml of the Oil Red O stock solution and filtered. The cells were then incubated for 5 min in 60% isopropanol. The Oil Red O working solution was then added to cells for 5 min. The monolyers were then rinsed clean with deionized water. The cells were then visualized using phase microscopy on the EVOS XL Core microscope. For quantitative assessment of adipogenesis in 96-well formats, cells were lysed in dimethylsulfoxide (DMSO) following the water wash of Oil Red O stained cells. The DMSO released the intracellular Oil Red O into the solution. The absorbance (492 nm) was measured using the BioTek Synergy H1 plate reader.

HMGA2-FL814 interaction = assay: PDI-ELISA for HMGA2 binding to DNA oligomer FL814; parameters: species or system mammalian; settings: for inhibition of HMGA2-FL814 interactions: compound at 100 nM in 2×SSCT, FIG. 12 / Table 1; for IC50: netropsin titration

## Cn1cc(NC(=O)c2cc(NC(=O)CN=C(N)N)cn2C)cc1C(=O)NCCC(=N)N [Netropsin, netropsin dihydrochloride]
HMGA2
  HMGA2 expression in fully differentiated 3T3-L1 cells in the presence of the compound: expressed
3T3-L1 cells; FIGS. 17A-17G
  inhibition of differentiation of 3T3-L1 cells to adipocytes: strongly inhibited
3T3-L1 cells; Mus musculus, 10 μM, Oil red O staining, differentiated 3T3-L1 cells, read-out: inhibition of neutral lipid production
  inhibition at 10 µM: > 50%
3T3-L1 cells; Mus musculus, 3T3-L1, Oil Red O absorbance 492 nm, read-out: inhibition IC50 of neutral lipids in the differentiated cells
  IC50: 7900 ± 1100 nM
HMGA2-FL814 interaction; 100 nM compound, 100 nM FL814, 1 μM HMGA2, 2×SSCT, OD450 without drug 1.44
  OD450 of the PDI-ELISA in the presence of the compound: 0.152
HMGA2-FL814 interaction; 500 nM or 1 μM netropsin, FIG. 10A, dihydrochloride
  inhibition of HMGA2-DNA interactions (OD450 back to background): complete inhibition; also recorded: completely inhibited
HMGA2-FL814 interaction; dihydrochloride
  inhibition of HMGA2-FL814 interactions: completely inhibit
HMGA2-FL814 interaction; listed as netropsin, dihydrochloride
  inhibition of HMGA2-FL814 interactions: potently inhibit
HMGA2-FL814 interaction; FIG. 10B, 0.5 μM HMGA2, read-out: inhibitory IC50 of HMGA2 binding to FL814
  IC50: ~10 nM
HMGA2-FL814 interaction; FIG. 11B, three titration experiments, read-out: apparent inhibitory IC50 of HMGA2 binding to FL814
  IC50: 9.3 ± 0.78 nM
